According to PMC12582325 (Proceedings of the National Academy of Sciences of the …, 2025):
Several values for one entry are separate records, joined by “and”; a condition that tells them apart may be missing. Equal values may be shown once. Entries after “also recorded” stand apart in the source; their conditions may differ. Read-outs that look alike come from different tables or passages of the source. Where a SMILES comes first, the peptide text is derived from it.

How the values were obtained:
Bc.Ste2 [1] = type: cell-based, Botrytis cinerea; conditions: for Bc.Ste2 (activation): with Bc agonist, normalised
Bb.Ste2 [2] = type: cell-based, Beauveria bassiana; conditions: Bb + Cm (Bb 0.0005 μM, Cm 10 μM); Control mean 6960; mean of n = 4
[3] = test system: no_GPCR (negative control lacking a GPCR); type: cell-based, Saccharomyces cerevisiae; conditions: SC + added peptide, individual replicates (n=3)
Fo.Ste2 [4] = type: cell-based, Fusarium oxysporum
Fo.Ste2 [5] = test: YeMaP Library-on-One: YPL1 pheromone library enrichment by mating, NGS; type: cell-based, Fusarium oxysporum; conditions: YPL1 library cocultured with Fo.Ste2 strain GEN90, 20 h, 2 d diploid enrichment, NextSeq 500
Bb.Ste2 [6] = type: cell-based, Beauveria bassiana
Fg.Ste2 [7] = type: cell-based, Fusarium graminearum; conditions: 10 μM; Control mean 6548; mean of n = 4
Fg.Ste2 [8] = type: cell-based, Fusarium graminearum; conditions: Fg + Cm (Fg 0.5 μM, Cm 10 μM); Control mean 6548; mean of n = 4
Fg.Ste2 [9] = test system: Fg.Ste2
Fo.Ste2 [10] = type: cell-based, Fusarium oxysporum; remark: listed apart in the source
Bb.Ste2 [11] = type: cell-based, Beauveria bassiana; conditions: YPL1 library cocultured with Bb.Ste2 strain GEN88, 20 h, 2 d diploid enrichment, NextSeq 500
Bc.Ste2 [12] = type: cell-based, Botrytis cinerea
Fo.Ste2 [13] = test: Yeast GPCR biosensor, cognate agonist together with candidate antagonist Cm; type: cell-based, Fusarium oxysporum; conditions: Fo + Cm (Fo 0.5 μM, Cm 10 μM); Control mean 6141; mean of n = 4
Bc.Ste2 [14] = type: cell-based, Botrytis cinerea; conditions: YPL1 library cocultured with Bc.Ste2 strain GEN89, 20 h, 2 d diploid enrichment, NextSeq 500
Bc.Ste2 [15] = type: cell-based, Botrytis cinerea; conditions: 10 μM
Bb.Ste2 [16] = type: cell-based, Beauveria bassiana; remark: listed apart in the source
Fg.Ste2 [17] = type: cell-based, Fusarium graminearum; conditions: YPL1 library cocultured with Fg.Ste2 strain GEN87, 20 h, 2 d diploid enrichment, NextSeq 500
Hj.Hpr2 = type: cell-based, Hypocrea jecorina

CC(C)C[C@H](NC(=O)[C@H](CS)NC(=O)[C@@H](N)Cc1c[nH]c2ccccc12)C(=O)N[C@@H](CCCNC(=N)N)C(=O)N1CCC[C@H]1C(=O)NCC(=O)N[C@@H](CCC(N)=O)C(=O)N1CCC[C@H]1C(=O)N[C@@H](CS)C(=O)N[C@@H](Cc1c[nH]c2ccccc12)C(=O)O [Cm] (H-WCLRPGQPCW-OH; N-terminus and C-terminus assumed)
Effect on activation of Bc.Ste2 by Bc pheromone, in words (Bc.Ste2 [1]; 0.0005 μM Bc pheromone in combination with 10 μM peptide, four biological replicates, Fig. 2G): completely abolished | Sup.Fig.3B Bc.Ste2 biosensor response, group mean (Bc.Ste2 [1]; Bc + Cm (Bc 0.0005 μM, Cm 10 μM), Control mean 6719, mean of n = 4): 9961 | Bc.Ste2 + pheromones, biosensor response, group mean (Bc.Ste2 [1]; Bc + the named peptide, Bc alone mean 134.8, mean of n = 4): 1.794 | Hillslope (Bc.Ste2 [1]; Bc.Ste2 + Cm (antagonist), four-parameter fit, best-fit value): -289008 | Excess of the antagonist compared to the agonist at IC50 (Bc.Ste2 [1]; Bc.Ste2, 0.0005 μM Bc pheromone): 2,000 fold | Bc.Ste2 (activation) (Bc.Ste2 [1]; Concentration 1e-6, replicate 1): 49.9332 | Bc.Ste2 (activation) (Bc.Ste2 [1]; Concentration 1e-6, replicate 2): 46.5053 | Bc.Ste2 (activation) (Bc.Ste2 [1]; Concentration 1e-6, replicate 3): 51.6445 | Bc.Ste2 (activation) (Bc.Ste2 [1]; Concentration 1e-6, replicate 4): 48.6418 | Bc.Ste2 (activation) (Bc.Ste2 [1]; Concentration 5e-6, replicate 1): 5.491 | Bc.Ste2 (activation) (Bc.Ste2 [1]; Concentration 5e-6, replicate 2): 4.729 | Bc.Ste2 (activation) (Bc.Ste2 [1]; Concentration 5e-6, replicate 3): 4.1657 | Bc.Ste2 (activation) (Bc.Ste2 [1]; Concentration 5e-6, replicate 4): 2.595 | Bc.Ste2 (activation) (Bc.Ste2 [1]; Concentration 1e-5, replicate 1): 1.904 | Bc.Ste2 (activation) (Bc.Ste2 [1]; Concentration 1e-5, replicate 2): 1.546 | Bc.Ste2 (activation) (Bc.Ste2 [1]; Concentration 1e-5, replicate 3): 1.924 | Bc.Ste2 (activation) (Bc.Ste2 [1]; Concentration 1e-5, replicate 4): 1.801 | Bc.Ste2 (activation) (Bc.Ste2 [1]; Concentration 1.00E-07, replicate 1): 86.3218 | Bc.Ste2 (activation) (Bc.Ste2 [1]; Concentration 1.00E-07, replicate 2): 95.1098 | Bc.Ste2 (activation) (Bc.Ste2 [1]; Concentration 1.00E-07, replicate 3): 89.2984 | Bc.Ste2 (activation) (Bc.Ste2 [1]; Concentration 1.00E-07, replicate 4): 97.6612 | Bc.Ste2 (activation) (Bc.Ste2 [1]; Concentration 1.00E-08, replicate 1): 96.9525 | Bc.Ste2 (activation) (Bc.Ste2 [1]; Concentration 1.00E-08, replicate 2): 96.5273 | Bc.Ste2 (activation) (Bc.Ste2 [1]; Concentration 1.00E-08, replicate 3): 99.5039 | Bc.Ste2 (activation) (Bc.Ste2 [1]; Concentration 1.00E-08, replicate 4): 98.7952 | Bc.Ste2 (activation) (Bc.Ste2 [1]; Concentration 1.00E-09, replicate 1): 101.063 | Bc.Ste2 (activation) (Bc.Ste2 [1]; Concentration 1.00E-09, replicate 2): 96.9525 | Bc.Ste2 (activation) (Bc.Ste2 [1]; Concentration 1.00E-09, replicate 3): 99.9291 | Bc.Ste2 (activation) (Bc.Ste2 [1]; Concentration 1.00E-09, replicate 4): 101.063 | Bc.Ste2 (activation) (Bc.Ste2 [1]; Concentration 5.00E-07, replicate 1): 78.8094 | Bc.Ste2 (activation) (Bc.Ste2 [1]; Concentration 5.00E-07, replicate 2): 64.2098 | Bc.Ste2 (activation) (Bc.Ste2 [1]; Concentration 5.00E-07, replicate 3): 79.0928 | Bc.Ste2 (activation) (Bc.Ste2 [1]; Concentration 5.00E-07, replicate 4): 82.7782 | Bc.Ste2 (activation) (Bc.Ste2 [1]; Concentration 5.00E-08, replicate 1): 94.4011 | Bc.Ste2 (activation) (Bc.Ste2 [1]; Concentration 5.00E-08, replicate 2): 98.7952 | Bc.Ste2 (activation) (Bc.Ste2 [1]; Concentration 5.00E-08, replicate 3): 96.9525 | Bc.Ste2 (activation) (Bc.Ste2 [1]; Concentration 5.00E-08, replicate 4): 98.7952 | Sup.Fig.3B Bb.Ste2 biosensor response, group mean (Bb.Ste2 [2]): 1335000 | barcode qPCR of diploids, no_GPCR x Fg.Pheromone ([3]; SC alone: 0, 0, 0): 0 and 0.032 and 0.007 | barcode qPCR of diploids, no_GPCR x Hj.Pheromone ([3]; SC alone: 0, 0, 0): 0 (2×) and 0.052 | barcode qPCR of diploids, no_GPCR x Bb.Pheromone ([3]; SC alone: 0, 0, 0.004): 0 (2×) and 0.005 | barcode qPCR of diploids, no_GPCR x Fo.Pheromone ([3]; SC alone: 0, 0, 0.007): 0.005 and 0 (2×) | barcode qPCR of diploids, no_GPCR x no_Pheromone ([3]; SC alone: 0.001, 0.001, 0): 0.027 and 0.026 and 0.002 | Fold decline in diploids containing Fo.Ste2 (Fo.Ste2 [4]): 0.2 fold | Mean 2 (SC + peptide), Fo share of diploids (Fo.Ste2 [4]): 0.087 | Mean Diff, SC vs. + peptide (Fo.Ste2 [4]; n = 3): 0.4046 | Enrichment after mating, reads per million minus library before coculture (Fo.Ste2 [5]): consistently lacking | Mean 2 (SC + peptide), Bb share of diploids (Bb.Ste2 [6]): 0.01767 | barcode qPCR of diploids, Bb.Ste2 x Fo.Pheromone (Bb.Ste2 [6]): 0.04 and 0.041 and 0.037 | barcode qPCR of diploids, Bb.Ste2 x no_Pheromone (Bb.Ste2 [6]): 0.037 and 0.028 and 0.049 | Mean Diff, SC vs. + peptide (Bb.Ste2 [6]; n = 3): 0.02891 | Sup.Fig.3B Fg.Ste2 biosensor response, group mean (Fg.Ste2 [7]): 14826 | Sup.Fig.3B Fg.Ste2 biosensor response, group mean (Fg.Ste2 [8]): 219822 | barcode qPCR of diploids, Fg.Ste2 x Hj.Pheromone (Fg.Ste2 [9]; SC + added peptide, individual replicates (n=3), SC alone: 0.003, 0.004, 0.001): 0.028 and 0.017 and 0.029 | barcode qPCR of diploids, Fg.Ste2 x Fo.Pheromone (Fg.Ste2 [9]; SC + added peptide, individual replicates (n=3), SC alone: 0.005, 0.005, 0.013): 0.014 and 0.066 and 0.033 | barcode qPCR of diploids, Fg.Ste2 x no_Pheromone (Fg.Ste2 [9]; SC + added peptide, individual replicates (n=3), SC alone: 0.012, 0.001, 0.003): 0 and 0.143 and 0.133 | barcode qPCR of diploids, Fg.Ste2 x Bb.Pheromone (Fg.Ste2 [9]; SC + added peptide, individual replicates (n=3), SC alone: 0.012, 0.009, 0.006): 0.032 and 0.042 and 0.028 | barcode qPCR of diploids, Fg.Ste2 x Fg.Pheromone (Fg.Ste2 [9]; SC + added peptide, individual replicates (n=3), SC alone: 0.206, 0.237, 0.235): 0.441 and 0.282 and 0.373 | Fold increase in diploids containing Fg.Ste2 (Fg.Ste2 [9]; consortium in SC media, 10 μM external peptide, three biological replicates): 2.2 fold | Activation of Fo.Ste2 biosensor, in words (Fo.Ste2 [10]): triggered the activation; also recorded: agonists for Fo.Ste2 | Hillslope (Fo.Ste2 [10]): 1.276 | logEC50 (Fo.Ste2 [10]): -6.973 | Sup.Fig.3B Fo.Ste2 biosensor response, group mean (Fo.Ste2 [10]; 10 μM): 1362500 | Enrichment after mating, reads per million minus library before coculture (Bb.Ste2 [11]): +7,508 RPM | Reduction in diploid formation (Bc.Ste2 [12]): two-fold reduction | Sup.Fig.3B Fo.Ste2 biosensor response, group mean (Fo.Ste2 [13]): 1377500 | Enrichment after mating, reads per million minus library before coculture (Bc.Ste2 [14]): consistently lacking | Sup.Fig.3B Bc.Ste2 biosensor response, group mean (Bc.Ste2 [15]): 6819 | Activation of Bb.Ste2 biosensor, in words (Bb.Ste2 [16]): triggered the activation | Sup.Fig.3B Bb.Ste2 biosensor response, group mean (Bb.Ste2 [16]; 10 μM): 1237500 | Enrichment after mating, reads per million minus library before coculture (Fg.Ste2 [17]): consistently lacking | Mean 2 (SC + peptide), Hj share of diploids (Hj.Hpr2): 0.004151 | barcode qPCR of diploids, Hj.HPR2 x Bb.Pheromone (Hj.Hpr2): 0 | barcode qPCR of diploids, Hj.HPR2 x Fg.Pheromone (Hj.Hpr2): 0 | barcode qPCR of diploids, Hj.HPR2 x no_Pheromone (Hj.Hpr2): 0 | Mean Diff, SC vs. + peptide (Hj.Hpr2; n = 3): -0.002114
